{"source": "patent US7449315B2", "about": "“Bifunctional energy-reversible acyl-compositions” (Cryolife, Inc., priority 2002, dated 2008)", "key": {"Human thrombin": {"molecular_target": "Human thrombin (Homo sapiens, UniProt P00734)", "experiment": "Inhibition and light reactivation of thrombin by R-NH-CINN-AP inhibitors, S-2238 chromogenic assay", "assay_type": "biochemical", "details": "for Inhibition after 16 Hrs Incubation (%): ambient temperature, dark; for Light Reactivation (%): after 10 seconds of blue light, activity light/activity control", "method": "(§1) R is -tBOC, —H2^+, or mPEG5000. Human thrombin was modified with R—NH-CINN-AP inhibitors as follows: Thrombin (600 units; ˜3.5 nmol) in 50 mM sodium citrate buffer, 3 mM CaCl2, 7% kollidon, pH 7.0, was reacted with 3.5-35 nmol of the R—N-CINN-AP inhibitor for 12-18 hours at ambient temperature in the dark. Thrombin activities were measured under red light (“dark”) and after exposure to 10 seconds of blue light from a dental light and were assayed using S-2238 (diaPharma) at 30° C. Percentage inhibition was calculated as 100—dark activity. Dark activity was calculated as [activitydark÷activitycontrol]×100. Light reactivation was calculated as activitylight÷activtycontrol. The following are typical results."}, "Human tPA (Activase)": {"molecular_target": "T1, Human tPA (Activase) (Homo sapiens, UniProt P00750)", "T1 construct": "purchased Genentech Inc. Lot # E9034A", "T1 sequence (P00750 36-562)": "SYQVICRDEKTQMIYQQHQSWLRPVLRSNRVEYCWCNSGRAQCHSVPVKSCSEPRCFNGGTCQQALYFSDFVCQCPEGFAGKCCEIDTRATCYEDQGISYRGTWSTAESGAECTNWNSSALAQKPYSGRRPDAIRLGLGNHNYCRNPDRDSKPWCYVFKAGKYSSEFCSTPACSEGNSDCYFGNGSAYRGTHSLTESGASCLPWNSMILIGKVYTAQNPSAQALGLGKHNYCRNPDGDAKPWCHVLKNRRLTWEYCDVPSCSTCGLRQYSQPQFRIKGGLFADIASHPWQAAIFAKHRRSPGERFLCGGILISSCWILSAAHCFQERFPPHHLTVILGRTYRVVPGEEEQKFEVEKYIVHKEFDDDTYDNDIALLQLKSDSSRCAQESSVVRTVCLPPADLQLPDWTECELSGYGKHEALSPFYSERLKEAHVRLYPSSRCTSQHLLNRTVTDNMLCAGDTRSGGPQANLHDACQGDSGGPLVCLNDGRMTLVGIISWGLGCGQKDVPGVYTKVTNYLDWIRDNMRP", "experiment": "Inhibition and light reactivation of tPA by Rz-NH-CINN-AP inhibitors, S-2288 chromogenic assay", "assay_type": "biochemical", "details": "for Inhibition after 16 hrs incubation (%): ambient temperature, dark; for Light Reactivation (%): after blue light", "method": "as §1\nR2 is -tBOC, —-H2^+, or mPEG5000. The procedures of Examnple 4 was repeated except that Human tPA (Activase, Genentech Inc. Lot # E9034A) was modified with Rz—NH-CINN-AP inhibitors in place of thrombin. The reactions were carried out as follows: tPA (0.83 nmol) in 10 mM tris-HCl, 130 mM NaCl, pH 7.4 was reacted with 0.8 3-8.3 nmoles of the R—NH CINN-AP inhibitors for 12-18 hours at ambient temperature in the dark. Activities were calculated as for Example 4, using S-2288 (diaPharna)."}, "[1]": {"experiment": "Solubility in aqueous solution after removal of t-BOC", "assay_type": "physicochemical", "details": "neutralized to pH 7.0", "method": "3-[2-hydroxy-4-(ethyl)(2-tert-butyloxycarbamidoethyl)amino]phenyl-2-methylpropenoic acid, 4-aminoiminophenyl ester, HCl salt (15; 12 mg, 25 μmmol) was suspended in 1.2 ml of 3N HCl and mixed by inversion for 3 hours at ambient temperature to release the t-BOC group and generate 3-[2-hydroxy-4-(ethyl) aminoethyl)amino]phenyl-2-methylpropenoic acid, 4-aminoiminophenyl ester, HCl salt (16; N-CINN-AP). After 3 hours, the reaction was neutralized with 3N NaOH to give a final pH of 7.0."}}}
{"smiles": "CCN(CCNC(=O)OC(C)(C)C)c1ccc(C=C(C)C(=O)Oc2ccc(C(=N)N)cc2)c(O)c1.Cl", "note": "[#15, 3-[2-hydroxy-4-(ethyl)(2-tert-butyloxycarbamidoethyl)amino]-phenyl-2-methylpropenoic acid, 4-aminoiminophenyl ester, HCl salt]", "values": [{"measurement": "Inhibition after 16 Hrs Incubation (%)", "setting": "Human thrombin; inhibitor excess 1×", "value": 94, "unit": "%"}, {"measurement": "Inhibition after 16 Hrs Incubation (%)", "setting": "Human thrombin; inhibitor excess 5×", "value": 98, "unit": "%"}, {"measurement": "Light Reactivation (%)", "setting": "Human thrombin; inhibitor excess 10×", "value": 72, "unit": "%"}, {"measurement": "Inhibition after 16 Hrs Incubation (%)", "setting": "Human thrombin; inhibitor excess 10×", "value": 97, "unit": "%"}, {"measurement": "Inhibition after 16 hrs incubation (%)", "setting": "Human tPA (Activase); inhibitor excess 5×", "value": 95, "unit": "%"}, {"measurement": "Light Reactivation (%)", "setting": "Human tPA (Activase); inhibitor excess 10×", "value": 87, "unit": "%"}, {"measurement": "Inhibition after 16 hrs incubation (%)", "setting": "Human tPA (Activase); inhibitor excess 10×", "value": 95, "unit": "%"}]}
{"smiles": "CCN(CCN)c1ccc(C=C(C)C(=O)Oc2ccc(C(=N)N)cc2)c(O)c1.Cl", "note": "[#16]", "values": [{"measurement": "Inhibition after 16 Hrs Incubation (%)", "setting": "Human thrombin; inhibitor excess 1×", "value": 21, "unit": "%"}, {"measurement": "Inhibition after 16 Hrs Incubation (%)", "setting": "Human thrombin; inhibitor excess 5×", "value": 70, "unit": "%"}, {"measurement": "Light Reactivation (%)", "setting": "Human thrombin; inhibitor excess 10×", "value": 64, "unit": "%"}, {"measurement": "Inhibition after 16 Hrs Incubation (%)", "setting": "Human thrombin; inhibitor excess 10×", "value": 96, "unit": "%"}, {"measurement": "Thrombin inhibition (in words)", "setting": "Human thrombin; summary of Table 1", "value": "less effective inhibitor at lower molar ratios"}, {"measurement": "Solubility (in words)", "setting": "[1]", "value": "soluble in aqueous solution"}, {"measurement": "tPA inhibition (in words)", "setting": "Human tPA (Activase); Table 2", "value": "less effective inhibitor at lower molar ratios"}, {"measurement": "Inhibition after 16 hrs incubation (%)", "setting": "Human tPA (Activase); inhibitor excess 5×", "value": 78, "unit": "%"}, {"measurement": "Light Reactivation (%)", "setting": "Human tPA (Activase); inhibitor excess 10×", "value": 78, "unit": "%"}, {"measurement": "Inhibition after 16 hrs incubation (%)", "setting": "Human tPA (Activase); inhibitor excess 10×", "value": 88, "unit": "%"}]}
